From ChEMBL document CHEMBL1148235, “Amidines as amide bond replacements in VLA-4 antagonists” (Bioorg Med Chem Lett, 2004)

What was measured:
[1] = Bioavailability in rat (dose 1 mg/kg i.v. and 2 mg/kg p.o.); type: ADME, organism-based; conditions: in vivo, po
[2] = Plasma clearance of compound in rats was evaluated; type: ADME, organism-based; conditions: rat, read-out: Clp
[3] = Dissociation constant was evaluated; type: physicochemical
[4] = Partition coefficient (logD); type: physicochemical; conditions: octanol/water
[5] = Inhibitory activity of compound against very late antigen 4 using VCAM-Ig ligand; parameters: species or system Rattus norvegicus
[6] = biological target: T1, Integrin alpha-4/beta-7 (Homo sapiens, UniProt P13612+P26010); experiment: Inhibitory activity of compound against alpha4-beta7 integrin using MAdCAM-Ig ligand; type: protein-complex assay
T1 sequence (P13612 whole entry): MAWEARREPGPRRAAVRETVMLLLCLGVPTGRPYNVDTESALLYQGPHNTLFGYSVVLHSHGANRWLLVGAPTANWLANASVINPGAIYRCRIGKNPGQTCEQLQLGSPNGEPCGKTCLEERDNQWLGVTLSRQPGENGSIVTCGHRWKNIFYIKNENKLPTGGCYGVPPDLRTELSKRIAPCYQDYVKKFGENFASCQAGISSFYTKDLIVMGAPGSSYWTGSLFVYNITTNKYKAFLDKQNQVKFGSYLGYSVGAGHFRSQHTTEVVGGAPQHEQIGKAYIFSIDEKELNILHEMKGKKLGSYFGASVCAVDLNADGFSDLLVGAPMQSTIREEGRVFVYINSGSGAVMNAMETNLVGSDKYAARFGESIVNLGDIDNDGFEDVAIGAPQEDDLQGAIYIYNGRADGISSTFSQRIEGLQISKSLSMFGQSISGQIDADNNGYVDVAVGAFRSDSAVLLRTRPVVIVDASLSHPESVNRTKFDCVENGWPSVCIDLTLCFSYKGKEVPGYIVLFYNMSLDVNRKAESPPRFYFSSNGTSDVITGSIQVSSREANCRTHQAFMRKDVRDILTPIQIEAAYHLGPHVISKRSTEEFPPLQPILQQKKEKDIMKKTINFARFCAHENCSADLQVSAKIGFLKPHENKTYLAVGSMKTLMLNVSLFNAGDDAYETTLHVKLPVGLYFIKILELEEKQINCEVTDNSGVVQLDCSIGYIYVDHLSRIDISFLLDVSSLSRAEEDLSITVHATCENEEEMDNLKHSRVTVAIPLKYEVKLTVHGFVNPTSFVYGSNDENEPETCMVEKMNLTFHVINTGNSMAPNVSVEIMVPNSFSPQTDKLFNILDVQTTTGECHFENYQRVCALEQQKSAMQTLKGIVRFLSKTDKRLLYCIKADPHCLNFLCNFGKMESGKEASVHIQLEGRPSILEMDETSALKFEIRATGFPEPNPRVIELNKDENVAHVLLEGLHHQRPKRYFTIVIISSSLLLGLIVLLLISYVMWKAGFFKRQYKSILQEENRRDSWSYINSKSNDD
T1 sequence (P26010 whole entry): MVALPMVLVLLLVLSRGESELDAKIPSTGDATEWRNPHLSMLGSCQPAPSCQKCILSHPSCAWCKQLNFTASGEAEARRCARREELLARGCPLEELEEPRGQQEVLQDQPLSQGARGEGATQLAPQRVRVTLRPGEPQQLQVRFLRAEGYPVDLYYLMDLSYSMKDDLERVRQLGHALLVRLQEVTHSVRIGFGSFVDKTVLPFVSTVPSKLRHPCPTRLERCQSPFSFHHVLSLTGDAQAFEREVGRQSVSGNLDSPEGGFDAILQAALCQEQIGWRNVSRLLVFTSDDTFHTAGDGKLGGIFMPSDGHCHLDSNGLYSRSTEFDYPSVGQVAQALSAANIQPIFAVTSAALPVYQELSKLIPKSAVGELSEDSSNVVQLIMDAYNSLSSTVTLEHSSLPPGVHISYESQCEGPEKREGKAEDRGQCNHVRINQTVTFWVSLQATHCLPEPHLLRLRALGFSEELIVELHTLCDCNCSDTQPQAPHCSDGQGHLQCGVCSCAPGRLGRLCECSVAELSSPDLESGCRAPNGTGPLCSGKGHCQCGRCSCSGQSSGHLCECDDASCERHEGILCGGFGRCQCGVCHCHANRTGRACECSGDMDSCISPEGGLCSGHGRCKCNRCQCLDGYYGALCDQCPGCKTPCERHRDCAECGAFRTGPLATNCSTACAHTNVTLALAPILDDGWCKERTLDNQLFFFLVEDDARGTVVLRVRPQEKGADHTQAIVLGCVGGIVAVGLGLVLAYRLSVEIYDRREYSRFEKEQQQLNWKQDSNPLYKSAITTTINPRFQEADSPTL

[7] = biological target: Integrin alpha-4/beta-1 (Homo sapiens) (UniProt P05556+P13612); experiment: Inhibition of VCAM-Ig binding to very late activating antigen-4 (VLA-4) at 10 uM; type: protein-complex assay

| Compound | bioavailability [1] [%] | clearance [2] [mL/min/kg] | pKa [3] | logD [4] | IC50 [5] [nM] | IC50 [6] [nM] | inhibition [7] [%] |
| --- | --- | --- | --- | --- | --- | --- | --- |
| COc1cccc(OC)c1-c1ccc(C[C@H](/N=C(\NC#N)[C@@H]2CCN2S(=O)(=O)c2ccccc2)C(=O)O)cc1 | 3 | 93 | -2 | 2.5 | 0.09 | 4.1 |  |
| COc1cccc(OC)c1-c1ccc(C[C@H](/N=C(\NO)[C@@H]2CCN2S(=O)(=O)c2ccccc2)C(=O)O)cc1 |  |  |  | 2.3 | 0.14 | 98 |  |
| COc1cccc(OC)c1-c1ccc(C[C@H](/N=C(\NCc2ccccn2)[C@@H]2CCN2S(=O)(=O)c2ccccc2)C(=O)O)cc1 |  |  |  | 2.8 | 0.15 | 35 |  |
| CN/C(=N\[C@@H](Cc1ccc(-c2c(OC)cccc2OC)cc1)C(=O)O)[C@@H]1CCN1S(=O)(=O)c1cc(Cl)cc(Cl)c1 | 0.8 | 85 | 10.2 | 2.7 | 0.05 | 21 |  |
| COc1cccc(OC)c1-c1ccc(C[C@H](NC(=O)[C@@H]2CCN2S(=O)(=O)c2cc(Cl)cc(Cl)c2)C(=O)O)cc1 |  | 102 |  | 4 | 0.08 |  |  |
| COc1cccc(OC)c1-c1ccc(C[C@H](/N=C(\N)[C@@H]2CCN2S(=O)(=O)c2cc(Cl)cc(Cl)c2)C(=O)O)cc1 | 0.3 | 90 |  | 4.1 | 0.05 | 16 |  |
| COc1cccc(OC)c1-c1ccc(C[C@@H]2N=C([C@@H]3CCN3S(=O)(=O)c3ccccc3)NNC2=O)cc1 | 3.3 | 86 |  | 3.2 | 58 |  |  |
| COc1cccc(OC)c1-c1ccc(C[C@H](/N=C(\NS(C)(=O)=O)[C@@H]2CCN2S(=O)(=O)c2ccccc2)C(=O)O)cc1 | 1.6 | 103 | -2 | 2.4 | 0.07 | 2.2 |  |
| COc1cccc(OC)c1-c1ccc(C[C@H](/N=C(\NCC(=O)O)[C@@H]2CCN2S(=O)(=O)c2ccccc2)C(=O)O)cc1 |  |  |  | 1.9 | 0.17 | 78 |  |
| COCCN/C(=N\[C@@H](Cc1ccc(-c2c(OC)cccc2OC)cc1)C(=O)O)[C@@H]1CCN1S(=O)(=O)c1ccccc1 | 0 | 81 |  |  | 0.28 | 65 |  |
| COc1cccc(OC)c1-c1ccc(C[C@H](NC(=O)[C@@H]2CCN2S(=O)(=O)c2ccccc2)C(=O)O)cc1 | 1.4 | 107 |  | 2.6 | 0.1 | 78 |  |
| COc1cccc(OC)c1-c1ccc(C[C@@H](C(=O)O)N(C)C(=O)[C@@H]2CCN2S(=O)(=O)c2cc(Cl)cc(Cl)c2)cc1 |  |  |  |  | 350 |  |  |
| CN/C(=N\[C@@H](Cc1ccc(-c2c(OC)cccc2OC)cc1)C(=O)O)[C@@H]1CCN1S(=O)(=O)c1ccccc1 | 0.7 | 81 | 10.5 | 2.4 | 0.12 | 40 |  |
| COc1cccc(OC)c1-c1ccc(C[C@H](/N=C(\NCC2CCOOCC2)[C@@H]2CCN2S(=O)(=O)c2ccccc2)C(=O)O)cc1 | 0.6 | 67 |  | 2.6 | 0.28 | 43 |  |
| COc1cccc(OC)c1-c1ccc(C[C@H](/N=C(\NCC(F)(F)F)[C@@H]2CCN2S(=O)(=O)c2ccccc2)C(=O)O)cc1 | 1.8 | 45 |  | 3.3 | 0.13 | 27 |  |
| COc1cccc(OC)c1-c1ccc(C[C@H](NC(=O)[C@]2(C)CCN2S(=O)(=O)c2cc(Cl)cc(Cl)c2)C(=O)O)cc1 |  | 110 |  |  | 0.07 |  |  |
| COc1cccc(OC)c1-c1ccc(C[C@H](NC[C@@H]2CCCN2S(=O)(=O)c2cc(Cl)cc(Cl)c2)C(=O)O)cc1 |  |  |  |  | 140 | 8400 |  |
| COc1cccc(OC)c1-c1ccc(C[C@H](/N=C(\NCC(C)(C)C)[C@@H]2CCN2S(=O)(=O)c2ccccc2)C(=O)O)cc1 | 0 | 64 |  | 3.7 | 0.21 | 120 |  |
| COc1cccc(OC)c1-c1ccc(C[C@H](/N=C(\N)[C@@H]2CCN2S(=O)(=O)c2ccccc2)C(=O)O)cc1 | 0.2 | 61 |  |  | 0.1 | 19 |  |
| CON/C(=N\[C@@H](Cc1ccc(-c2c(OC)cccc2OC)cc1)C(=O)O)[C@@H]1CCN1S(=O)(=O)c1ccccc1 | 9.3 | 79 | < 4 | 2.8 | 0.17 | 35 |  |
| COc1cccc(OC)c1-c1ccc(C[C@@H]2/N=C(/[C@@H]3CCN3S(=O)(=O)c3ccccc3)NCc3nccn3C2=O)cc1 | 0.6 | 382 |  |  |  | 4090 | 85 |
| COc1cccc(OC)c1-c1ccc(C[C@H](OC(=O)[C@@H]2CCN2S(=O)(=O)c2cc(Cl)cc(Cl)c2)C(=O)O)cc1 |  |  |  |  | 15 | 3000 |  |
